≈ marks a conversion by molar mass, not a printed value. Calls of active or inactive are those of the source. The rule behind the calls is not given here.
How the values were obtained:
[1] = Inhibition of N-terminal GST-tagged wildtype human P38alpha (4 to 152 residues) extracted from Escherichia coli/GST-tagged PRAK (unknown origin) assessed as reduction in HSP27 phosphorylation incubated for 2 hrs in presence of ATP and HSP27-FITC peptide by fluorescence polarization based IMAP assay
[2] = Clearance in male Sprague-Dawley rat at 1 mg/kg, iv measured after 24 hrs by LC-MS/MS analysis; type: ADME, organism-based; settings: in vivo
[3] = MRT in male Sprague-Dawley rat at 1 mg/kg, iv measured after 24 hrs by LC-MS/MS analysis; type: ADME, organism-based; settings: in vivo
[4] = Cmax in male Sprague-Dawley rat at 2 mg/kg, po measured after 24 hrs by LC-MS/MS analysis; type: ADME, organism-based; settings: in vivo
[5] = AUClast in male Sprague-Dawley rat at 2 mg/kg, po measured after 24 hrs by LC-MS/MS analysis; type: ADME, organism-based; settings: in vivo
[6] = AUClast in male Beagle dog at 1 mg/kg, iv measured after 24 hrs by LC-MS/MS analysis; type: ADME, organism-based, Canis lupus familiaris; settings: in vivo
[7] = Volume of distribution at steady state in male Beagle dog at 1 mg/kg, iv measured after 24 hrs by LC-MS/MS analysis; type: ADME, organism-based, Canis lupus familiaris; settings: in vivo, read-out: Vdss
[8] = Half-life in male Beagle dog at 1 mg/kg, iv measured after 24 hrs by LC-MS/MS analysis; type: ADME, organism-based, Canis lupus familiaris; settings: in vivo
[9] = Cmax in male Beagle dog at 2 mg/kg, po measured after 24 hrs by LC-MS/MS analysis; type: ADME, organism-based, Canis lupus familiaris; settings: in vivo
[10] = AUClast in male Beagle dog at 2 mg/kg, po measured after 24 hrs by LC-MS/MS analysis; type: ADME, organism-based, Canis lupus familiaris; settings: in vivo
[11] = system: PBMC; assay: Inhibition of LPS-induced IL-6 production in human PBMC cells at 0.01 to 10000 nM preincubated with compound for 1 hrs followed by LPS addition and measured after 4 hrs; type: functional, cell-based; settings: dose 0.01-10000 nM, time 5.0 hrs
[12] = Inhibition of HSP27 phosphorylation in human THP-1 cells at 0.1 to 1000 nM preincubated with compounds followed by LPS addition for 30 mins; type: cell-based
[13] = Inhibition of P38alpha/GST-tagged ATF2 (unknown origin) assessed as reduction in ATF2 phosphorylation incubated for 30 mins in presence of ATP by TR-FRET assay; parameters: species or system Homo sapiens
[14] = Selectivity ratio of IC50 for inhibition of P38alpha/GST-tagged ATF2 (unknown origin) to IC50 for inhibition of N-terminal GST-tagged wildtype human P38alpha (4 to 152 residues) extracted from Escherichia coli/GST-tagged MK2 (unknown origin)
[15] = target: MAP kinase-activated protein kinase 2 (Homo sapiens) (UniProt P49137); assay: Inhibition of LPS-induced MK2 phosphorylation in differentiated human THP-1 macrophage cells at 10 to 10000 nM preincubated with compound for 60 mins followed by LPS addition and measured after 30 mins by Western blot analysis; type: cell-based; settings: dose 10-10000 nM, time 90.0 min
[16] = target: Cytochrome P450 3A4 (Homo sapiens, UniProt P08684); assay: Inhibition of CYP3A4 in human liver microsomes using testosterone as substrate in presence of NADP by LC-MS/MS analysis; type: ADME, Microsome
[17] = target: Cytochrome P450 2C19 (Homo sapiens, UniProt P33261); assay: Inhibition of CYP2C19 in human liver microsomes using mephenytoin as substrate in presence of NADP by LC-MS/MS analysis; type: ADME, Microsome
[18] = target: T1, Cytochrome P450 1A2 (Homo sapiens, UniProt P05177); assay: Inhibition of CYP1A2 in human liver microsomes using phenacetin as substrate in presence of NADP by LC-MS/MS analysis; type: ADME, Microsome
T1 sequence (P05177 whole entry): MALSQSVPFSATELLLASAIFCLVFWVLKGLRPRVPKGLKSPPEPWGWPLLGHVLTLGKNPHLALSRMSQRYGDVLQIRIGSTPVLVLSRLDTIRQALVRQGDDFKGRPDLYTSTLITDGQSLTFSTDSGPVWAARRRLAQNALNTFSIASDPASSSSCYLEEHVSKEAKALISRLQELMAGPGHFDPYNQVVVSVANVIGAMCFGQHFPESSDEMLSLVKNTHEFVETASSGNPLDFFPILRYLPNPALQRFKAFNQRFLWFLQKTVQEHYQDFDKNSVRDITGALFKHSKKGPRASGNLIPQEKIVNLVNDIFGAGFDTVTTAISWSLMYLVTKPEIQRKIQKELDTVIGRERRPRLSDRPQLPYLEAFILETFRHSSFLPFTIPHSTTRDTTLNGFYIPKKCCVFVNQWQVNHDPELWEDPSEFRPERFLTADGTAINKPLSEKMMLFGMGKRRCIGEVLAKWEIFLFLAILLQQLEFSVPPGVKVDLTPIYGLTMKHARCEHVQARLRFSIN

[19] = target: Voltage-gated inwardly rectifying potassium channel KCNH2 (Homo sapiens, UniProt Q12809); assay: Inhibition of human ERG in HEK293 cells; type: toxicity, cell-based
[20] = Solubility of compound in PBS at pH 7.4 measured after 4 to 24 hrs by LC-MS analysis; type: physicochemical; settings: time 4-24 hrs
[21] = AUC (0 to 24 hrs) in female Lewis rat at 1 mg/kg, po measured after 24 hrs by LC-MS/MS analysis; type: ADME, organism-based; settings: in vivo
[22] = Half-life in female Lewis rat at 3 mg/kg, po measured after 24 hrs by LC-MS/MS analysis; type: ADME, organism-based; settings: in vivo
[23] = Cmax in female Lewis rat at 3 mg/kg, po measured after 24 hrs by LC-MS/MS analysis; type: ADME, organism-based; settings: in vivo
[24] = AUC (0 to 24 hrs) in female Lewis rat at 3 mg/kg, po measured after 24 hrs by LC-MS/MS analysis; type: ADME, organism-based; settings: in vivo
[25] = system: Rattus norvegicus; assay: Antiarthritic activity in Mycobacterium tuberculosis H37R-induced female Lewis rat model of arthritis at 0.3 mg/kg, po administered twice daily for 15 days starting from day 13 after adjuvant administration; type: functional, organism-based; settings: time 15.0 day
[26] = system: Rattus norvegicus; assay: Antiarthritic activity in Mycobacterium tuberculosis H37R-induced female Lewis rat model of arthritis at 1 mg/kg, po administered twice daily for 15 days starting from day 13 after adjuvant administration; type: functional, organism-based; settings: time 15.0 day
[27] = system: Rattus norvegicus; assay: (§1) Antiarthritic activity in Mycobacterium tuberculosis H37R-induced female Lewis rat model of arthritis assessed as reduction in clinical score at 1 mg/kg, po administered twice daily for 15 days starting from day 13 after adjuvant administration; type: functional, organism-based; settings: time 15.0 day
[28] = system: Rattus norvegicus; assay: as §1, with “joint swelling by measuring paw volume” for “clinical”, “administration by water displacement method” for “administration”; type: functional, organism-based; settings: time 15.0 day
[29] = system: Rattus norvegicus; assay: Antiarthritic activity in Mycobacterium tuberculosis H37R-induced female Lewis rat model of arthritis assessed as reduction in paw inflammation at 0.3 to 1 mg/kg, po administered twice daily for 15 days starting from day 13 after adjuvant administration by micro-CT analysis; type: functional, organism-based; settings: dose 0.3-1 mg/kg, time 15.0 day
[30] = system: Rattus norvegicus; assay: Antiarthritic activity in Mycobacterium tuberculosis H37R-induced female Lewis rat model of arthritis assessed as inhibition of IL-6 production at 0.3 to 1 mg/kg, po administered twice daily for 15 days starting from day 13 after adjuvant administration; type: functional, organism-based; settings: dose 0.3-1 mg/kg, time 15.0 day

Sequence of Cytochrome P450 2C19 (P33261 whole entry): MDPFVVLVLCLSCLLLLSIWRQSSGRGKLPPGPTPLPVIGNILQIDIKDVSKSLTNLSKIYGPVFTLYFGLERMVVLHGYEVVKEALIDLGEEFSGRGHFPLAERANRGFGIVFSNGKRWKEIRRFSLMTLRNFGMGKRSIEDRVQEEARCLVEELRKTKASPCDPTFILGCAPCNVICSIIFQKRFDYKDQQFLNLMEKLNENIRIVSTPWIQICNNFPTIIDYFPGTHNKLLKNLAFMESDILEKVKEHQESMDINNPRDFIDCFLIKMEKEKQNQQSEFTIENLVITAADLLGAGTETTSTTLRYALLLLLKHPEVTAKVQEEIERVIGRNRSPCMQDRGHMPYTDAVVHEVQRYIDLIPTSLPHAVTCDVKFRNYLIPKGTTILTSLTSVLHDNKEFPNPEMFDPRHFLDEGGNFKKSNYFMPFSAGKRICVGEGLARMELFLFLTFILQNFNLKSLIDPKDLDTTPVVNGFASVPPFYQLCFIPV
Sequence of Voltage-gated inwardly rectifying potassium channel KCNH2 (Q12809 whole entry): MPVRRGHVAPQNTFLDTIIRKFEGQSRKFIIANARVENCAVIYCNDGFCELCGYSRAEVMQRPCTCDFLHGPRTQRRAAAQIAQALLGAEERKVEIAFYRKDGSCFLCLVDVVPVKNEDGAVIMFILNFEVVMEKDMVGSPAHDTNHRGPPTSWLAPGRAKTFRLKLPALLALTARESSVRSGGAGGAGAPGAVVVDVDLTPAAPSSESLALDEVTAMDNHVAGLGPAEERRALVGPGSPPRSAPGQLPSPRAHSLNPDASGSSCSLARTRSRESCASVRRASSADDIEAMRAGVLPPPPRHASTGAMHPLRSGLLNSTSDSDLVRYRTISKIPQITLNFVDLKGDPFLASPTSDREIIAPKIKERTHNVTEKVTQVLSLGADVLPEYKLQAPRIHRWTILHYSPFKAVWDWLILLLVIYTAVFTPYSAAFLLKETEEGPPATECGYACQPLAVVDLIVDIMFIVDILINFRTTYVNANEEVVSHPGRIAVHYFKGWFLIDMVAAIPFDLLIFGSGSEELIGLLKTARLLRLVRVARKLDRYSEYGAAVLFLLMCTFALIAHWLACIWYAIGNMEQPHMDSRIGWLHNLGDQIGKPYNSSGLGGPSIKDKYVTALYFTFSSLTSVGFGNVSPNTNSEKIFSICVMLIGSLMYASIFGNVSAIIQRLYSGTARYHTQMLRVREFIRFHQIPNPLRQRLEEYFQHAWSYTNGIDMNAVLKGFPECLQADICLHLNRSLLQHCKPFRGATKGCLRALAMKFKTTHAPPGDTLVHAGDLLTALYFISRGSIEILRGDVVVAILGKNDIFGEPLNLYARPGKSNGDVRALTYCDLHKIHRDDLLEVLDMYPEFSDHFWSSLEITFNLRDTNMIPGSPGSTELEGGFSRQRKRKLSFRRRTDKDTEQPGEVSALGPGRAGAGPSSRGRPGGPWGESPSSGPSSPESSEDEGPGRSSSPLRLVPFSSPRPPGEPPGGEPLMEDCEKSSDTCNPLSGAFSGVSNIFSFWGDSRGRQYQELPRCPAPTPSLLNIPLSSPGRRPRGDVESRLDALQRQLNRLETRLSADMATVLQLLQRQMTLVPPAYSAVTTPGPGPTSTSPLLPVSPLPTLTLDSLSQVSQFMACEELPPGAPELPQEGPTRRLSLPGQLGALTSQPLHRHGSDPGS
Sequence of MAP kinase-activated protein kinase 2 (Homo sapiens) (P49137 whole entry, looked up): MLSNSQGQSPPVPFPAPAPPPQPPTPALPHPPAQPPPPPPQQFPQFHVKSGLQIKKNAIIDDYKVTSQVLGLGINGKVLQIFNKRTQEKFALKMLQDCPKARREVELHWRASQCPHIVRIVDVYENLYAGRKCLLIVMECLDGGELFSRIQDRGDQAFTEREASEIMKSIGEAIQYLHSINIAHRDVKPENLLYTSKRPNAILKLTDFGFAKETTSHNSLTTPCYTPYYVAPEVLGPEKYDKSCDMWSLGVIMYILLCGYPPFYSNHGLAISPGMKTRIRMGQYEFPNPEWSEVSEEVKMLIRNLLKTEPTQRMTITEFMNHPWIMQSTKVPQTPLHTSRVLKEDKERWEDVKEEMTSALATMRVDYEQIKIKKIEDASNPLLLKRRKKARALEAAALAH
Sequence of Cytochrome P450 3A4 (P08684 whole entry): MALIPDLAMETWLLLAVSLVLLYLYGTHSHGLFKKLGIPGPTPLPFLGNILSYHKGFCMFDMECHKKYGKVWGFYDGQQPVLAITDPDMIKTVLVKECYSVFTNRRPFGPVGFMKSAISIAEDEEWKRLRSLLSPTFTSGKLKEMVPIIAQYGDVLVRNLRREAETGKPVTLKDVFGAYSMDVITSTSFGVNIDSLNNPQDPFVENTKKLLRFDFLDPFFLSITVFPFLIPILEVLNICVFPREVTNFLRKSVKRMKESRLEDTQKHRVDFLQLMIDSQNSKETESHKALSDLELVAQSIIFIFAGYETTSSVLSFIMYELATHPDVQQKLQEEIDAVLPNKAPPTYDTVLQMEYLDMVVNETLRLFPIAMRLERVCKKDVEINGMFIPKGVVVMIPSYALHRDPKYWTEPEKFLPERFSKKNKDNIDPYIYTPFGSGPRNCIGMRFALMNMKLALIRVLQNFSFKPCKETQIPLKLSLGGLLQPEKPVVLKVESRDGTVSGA

SMILES: Cc1cnc(-c2ccnc(C(C)(C)O)n2)c(F)c1-n1c(C)cc(O[C@@H](C)c2ncc(F)cc2F)c(C)c1=O
- IC50 [1]: 5.85 µM
- clearance [2]: 9.6 mL/min/kg
- MRT [3]: 2.2 h
- Cmax [4]: 1140 ng/mL
- AUC(0-t) at 24 h [5]: 4340 ng·h/mL
- AUC(0-t) at 24 h [6]: 3750 ng·h/mL
- Vd [7]: 0.8 L/kg
- half-life [8]: 2.9 h
- Cmax [9]: 1120 ng/mL
- AUC(0-t) at 24 h [10]: 5080 ng·h/mL
- inhibition [11]: Active
- IC50 [12]: 0.001 µM
- IC50 [13]: 1 µM
- Ratio IC50 [14]: 263
- inhibition [15]: Active
- IC50 [16]: > 40 µM
- IC50 [17]: > 40 µM
- IC50 [18]: > 40 µM
- IC50 [19]: > 30 µM
- solubility [20]: 88.3 µg/mL (≈ 168 µM)
- AUC(0-t) at 24 h [21]: 2390 ng·h/mL
- half-life [22]: 3.5 h
- Cmax [23]: 916 ng/mL
- AUC(0-t) at 24 h [24]: 6480 ng·h/mL
- Activity [25]: Active; Significant Clinical Effect Observed
- Activity [26]: Active
- Activity [27]: Active; Comparable To 3 Mg/Kg Of Compound 1
- Activity [28]: Active; Significantly Superior Activity Observed Compared To 3 Mg/Kg Of Compound 1
- Activity [29]: Active
- Activity [30]: Active

Reference: ChEMBL document CHEMBL6096702, “Discovery of a Novel p38α-MK2 Complex Inhibitor as a Potential Choice for Autoimmune Diseases” (J Med Chem, 2025)
